Assay results from ChEMBL document CHEMBL1201862, “PubChem BioAssay data set” (2004).
The source made the active and inactive calls.

Assays:
[1] = target: Voltage-dependent T-type calcium channel subunit alpha-1H (Homo sapiens, UniProt O95180); type: functional;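 further: channel activity triggered by adding a high calcium stimulation buffer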
[2] = target: Eukaryotic translation initiation factor 4H (Homo sapiens, UniProt Q15056); assay: human eIF4H binding inhibitors, primary screen, translation initiation inhibitor project, biochemical, uHTS, fluorescence polarization (AID 2012)
[3] = target: Polyadenylate-binding protein 1 (Homo sapiens, UniProt P11940); assay: PABP poly(A) RNA binding inhibitors, primary screen, biochemical, fluorescence polarization, uHTS (AID 2014)
Sequence of Polyadenylate-binding protein 1 (P11940 whole entry): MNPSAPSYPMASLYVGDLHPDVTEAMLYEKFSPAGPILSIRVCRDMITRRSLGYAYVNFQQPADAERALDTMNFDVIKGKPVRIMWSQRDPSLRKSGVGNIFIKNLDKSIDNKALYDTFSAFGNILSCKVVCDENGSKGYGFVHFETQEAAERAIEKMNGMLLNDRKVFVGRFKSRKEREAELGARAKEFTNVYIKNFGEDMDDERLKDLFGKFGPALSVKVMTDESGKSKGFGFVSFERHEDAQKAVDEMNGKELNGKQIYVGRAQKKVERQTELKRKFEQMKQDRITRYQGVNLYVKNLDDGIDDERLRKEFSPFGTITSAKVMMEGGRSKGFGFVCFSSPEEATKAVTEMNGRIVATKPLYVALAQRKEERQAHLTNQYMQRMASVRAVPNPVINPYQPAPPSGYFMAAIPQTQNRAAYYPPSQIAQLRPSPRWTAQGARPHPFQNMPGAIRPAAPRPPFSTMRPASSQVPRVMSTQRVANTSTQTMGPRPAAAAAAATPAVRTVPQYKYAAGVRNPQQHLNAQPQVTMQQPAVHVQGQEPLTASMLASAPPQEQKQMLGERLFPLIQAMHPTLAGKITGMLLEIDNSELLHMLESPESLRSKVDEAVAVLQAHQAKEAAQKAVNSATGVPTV

Leucine aminopeptidase = target: T1, Leucine aminopeptidase (Plasmodium falciparum 3D7, UniProt Q8IL11); assay: P. falciparum M17LAP inhibitors, primary screen, biochemical, fluorogenic H-Leu-NHMec substrate, 1536-well (AID 1619); type: functional
T1 sequence (Q8IL11 whole entry): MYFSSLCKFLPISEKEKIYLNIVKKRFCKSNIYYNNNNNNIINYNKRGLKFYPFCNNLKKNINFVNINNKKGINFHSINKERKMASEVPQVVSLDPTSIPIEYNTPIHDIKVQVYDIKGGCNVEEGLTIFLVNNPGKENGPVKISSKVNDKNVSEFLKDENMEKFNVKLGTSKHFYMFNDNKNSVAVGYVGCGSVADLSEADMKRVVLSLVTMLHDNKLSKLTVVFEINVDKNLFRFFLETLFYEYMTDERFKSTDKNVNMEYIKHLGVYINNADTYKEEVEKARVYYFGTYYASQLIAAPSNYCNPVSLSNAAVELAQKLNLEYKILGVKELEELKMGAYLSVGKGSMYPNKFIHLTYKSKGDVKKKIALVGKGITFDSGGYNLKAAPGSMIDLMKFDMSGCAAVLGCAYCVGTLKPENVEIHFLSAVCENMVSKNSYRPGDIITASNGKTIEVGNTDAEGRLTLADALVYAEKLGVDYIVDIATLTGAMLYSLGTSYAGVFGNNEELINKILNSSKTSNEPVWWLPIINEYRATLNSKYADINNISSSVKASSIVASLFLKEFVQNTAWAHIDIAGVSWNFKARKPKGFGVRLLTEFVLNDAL

[4] = M. tuberculosis H37Rv growth inhibitors, H37Rv strain (AID 1626); type: functional
[5] = HEp-2 cell cytotoxicity, dose response, cytotoxicity control for RSV inhibitor project, HTS (AID 2410); type: functional; conditions: human respiratory syncytial virus
[6] = Shn3 3'UTR reporter inhibitors, dose response, cell-based, Clone20 osteoblasts, firefly luciferase, cherry-picked (AID 624132); type: functional;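 further: firefly luciferase luminescence from reporter carrying the Shn3 3'UTR in osteoblasts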
[7] = HepG2 cell cytotoxicity, dose response, cytotoxicity control for Shn3 inhibitor project, CellTiter-Glo, cherry-picked (AID 624134); type: functional, cell-based
[8] = control 3'UTR Renilla luciferase suppression, dose response, counter-screen for Shn3 inhibitor project, cell-based, Clone20-Shn3RL, cherry-picked (AID 624133); type: functional
[9] = target: T2, Replicative DNA helicase DnaB (Mycobacterium tuberculosis, UniProt P9WMR3); assay: DnaB intein splicing inhibitors, dose response, biochemical, cell-free fluorescence (AID 449749); type: functional
T2 sequence (P9WMR3 whole entry): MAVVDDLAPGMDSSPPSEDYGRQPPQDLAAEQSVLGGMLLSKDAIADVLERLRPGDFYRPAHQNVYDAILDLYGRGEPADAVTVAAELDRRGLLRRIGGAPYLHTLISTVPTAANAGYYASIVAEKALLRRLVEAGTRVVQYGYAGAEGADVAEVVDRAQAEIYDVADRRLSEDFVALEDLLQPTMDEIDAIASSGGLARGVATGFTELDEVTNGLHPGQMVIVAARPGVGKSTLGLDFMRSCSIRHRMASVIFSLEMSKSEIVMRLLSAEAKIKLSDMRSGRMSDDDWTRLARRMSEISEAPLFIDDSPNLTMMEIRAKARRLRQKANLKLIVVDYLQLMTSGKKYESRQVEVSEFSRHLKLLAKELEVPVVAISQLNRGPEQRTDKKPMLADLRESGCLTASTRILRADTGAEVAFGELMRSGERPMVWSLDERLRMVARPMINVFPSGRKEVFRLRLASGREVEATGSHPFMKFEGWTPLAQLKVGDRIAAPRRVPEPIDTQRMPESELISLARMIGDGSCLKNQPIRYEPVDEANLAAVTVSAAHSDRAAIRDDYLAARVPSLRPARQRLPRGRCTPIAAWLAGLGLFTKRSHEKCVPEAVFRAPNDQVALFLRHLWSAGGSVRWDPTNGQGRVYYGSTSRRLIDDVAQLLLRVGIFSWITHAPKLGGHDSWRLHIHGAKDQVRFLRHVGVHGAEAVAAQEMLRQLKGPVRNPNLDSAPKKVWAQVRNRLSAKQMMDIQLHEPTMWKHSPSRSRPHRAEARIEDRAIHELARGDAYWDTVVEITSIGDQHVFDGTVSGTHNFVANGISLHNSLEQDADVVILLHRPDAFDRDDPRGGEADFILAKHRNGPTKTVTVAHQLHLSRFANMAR

Protein RecA = target: T3, Protein RecA (Mycobacterium tuberculosis, UniProt P9WHJ3); assay: Fluorescence Cell-Free Homogeneous Dose Retest to Identify Inhibitors of RecA-Intein Splicing Activity. [Related pubchem assays (depositor defined):AID2097, AID2223, AID489010, AID492950]; type: functional
T3 sequence (P9WHJ3 whole entry): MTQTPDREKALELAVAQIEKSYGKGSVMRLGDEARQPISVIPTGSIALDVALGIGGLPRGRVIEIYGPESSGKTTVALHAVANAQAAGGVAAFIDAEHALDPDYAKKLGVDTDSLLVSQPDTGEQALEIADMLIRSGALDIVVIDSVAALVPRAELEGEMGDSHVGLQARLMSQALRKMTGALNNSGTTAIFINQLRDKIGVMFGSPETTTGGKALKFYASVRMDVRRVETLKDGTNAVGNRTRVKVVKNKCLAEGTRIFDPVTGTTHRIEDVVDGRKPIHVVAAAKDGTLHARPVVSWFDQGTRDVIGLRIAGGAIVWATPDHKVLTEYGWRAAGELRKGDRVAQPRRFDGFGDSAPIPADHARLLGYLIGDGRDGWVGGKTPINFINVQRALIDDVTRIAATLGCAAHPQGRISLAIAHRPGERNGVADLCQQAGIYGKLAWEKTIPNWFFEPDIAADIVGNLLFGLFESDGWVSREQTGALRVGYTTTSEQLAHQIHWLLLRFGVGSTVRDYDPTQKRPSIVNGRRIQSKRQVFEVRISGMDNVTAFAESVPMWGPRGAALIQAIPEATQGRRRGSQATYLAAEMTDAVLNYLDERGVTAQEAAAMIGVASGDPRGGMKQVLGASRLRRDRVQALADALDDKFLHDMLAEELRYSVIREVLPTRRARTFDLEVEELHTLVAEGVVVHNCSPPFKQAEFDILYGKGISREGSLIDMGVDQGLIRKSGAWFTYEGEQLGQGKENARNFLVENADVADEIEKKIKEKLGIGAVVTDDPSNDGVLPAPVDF

[10] = target: Induced myeloid leukemia cell differentiation protein Mcl-1 (Homo sapiens, UniProt Q07820); type: functional
Sequence of Induced myeloid leukemia cell differentiation protein Mcl-1 (Q07820 whole entry): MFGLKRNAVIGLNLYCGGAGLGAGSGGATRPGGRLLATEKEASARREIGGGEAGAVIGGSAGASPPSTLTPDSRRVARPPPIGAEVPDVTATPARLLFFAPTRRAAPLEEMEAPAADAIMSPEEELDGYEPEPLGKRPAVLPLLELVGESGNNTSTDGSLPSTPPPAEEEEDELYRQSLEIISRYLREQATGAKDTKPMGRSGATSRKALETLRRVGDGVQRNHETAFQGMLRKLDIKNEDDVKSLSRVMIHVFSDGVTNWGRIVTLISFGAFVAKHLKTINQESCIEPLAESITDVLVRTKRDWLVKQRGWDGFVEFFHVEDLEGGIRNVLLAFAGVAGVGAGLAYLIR

SUMO-activating enzyme [11] = target: T4, SUMO-activating enzyme (Homo sapiens, UniProt Q9UBT2); assay: SUMOylation inhibitor hit validation, confirmation, SUMOylation inhibitor project, biochemical, AlphaScreen (AID 2018); type: functional
T4 sequence (Q9UBE0 whole entry): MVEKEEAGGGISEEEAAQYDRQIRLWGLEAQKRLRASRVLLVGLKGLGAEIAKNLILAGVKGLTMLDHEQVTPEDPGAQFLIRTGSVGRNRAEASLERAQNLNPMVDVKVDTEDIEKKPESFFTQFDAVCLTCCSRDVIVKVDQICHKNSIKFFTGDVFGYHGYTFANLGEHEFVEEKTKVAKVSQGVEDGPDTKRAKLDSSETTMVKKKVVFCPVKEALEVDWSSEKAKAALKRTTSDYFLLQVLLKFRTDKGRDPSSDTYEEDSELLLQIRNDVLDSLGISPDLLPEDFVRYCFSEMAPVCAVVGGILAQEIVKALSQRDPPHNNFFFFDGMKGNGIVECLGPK
T4 sequence (Q9UBT2 whole entry): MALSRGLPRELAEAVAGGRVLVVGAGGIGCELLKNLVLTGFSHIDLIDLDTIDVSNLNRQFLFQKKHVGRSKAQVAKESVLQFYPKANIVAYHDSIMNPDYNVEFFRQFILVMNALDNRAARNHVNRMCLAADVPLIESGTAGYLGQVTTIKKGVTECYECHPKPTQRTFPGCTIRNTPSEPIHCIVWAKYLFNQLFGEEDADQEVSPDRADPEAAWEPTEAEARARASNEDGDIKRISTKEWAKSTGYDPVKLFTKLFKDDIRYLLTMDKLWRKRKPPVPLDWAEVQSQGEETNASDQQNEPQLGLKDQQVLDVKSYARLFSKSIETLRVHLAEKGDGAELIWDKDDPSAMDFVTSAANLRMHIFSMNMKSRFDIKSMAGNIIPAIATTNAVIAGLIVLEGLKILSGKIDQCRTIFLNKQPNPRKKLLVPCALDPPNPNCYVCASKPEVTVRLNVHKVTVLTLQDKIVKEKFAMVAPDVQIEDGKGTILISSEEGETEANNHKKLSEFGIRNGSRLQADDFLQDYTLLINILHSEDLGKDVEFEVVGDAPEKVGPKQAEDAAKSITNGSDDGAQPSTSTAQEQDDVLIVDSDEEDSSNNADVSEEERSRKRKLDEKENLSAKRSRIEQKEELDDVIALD

SUMO-activating enzyme [12] = target: T4, SUMO-activating enzyme; assay: inhibitors of in vitro SUMOylation cascade, primary screen, biochemical, HTRF, uHTS (AID 2006); type: protein-complex assay
[13] = target: T5, Apoptotic protease-activating factor 1 (Homo sapiens, UniProt O14727); type: functional
T5 sequence (O14727 whole entry): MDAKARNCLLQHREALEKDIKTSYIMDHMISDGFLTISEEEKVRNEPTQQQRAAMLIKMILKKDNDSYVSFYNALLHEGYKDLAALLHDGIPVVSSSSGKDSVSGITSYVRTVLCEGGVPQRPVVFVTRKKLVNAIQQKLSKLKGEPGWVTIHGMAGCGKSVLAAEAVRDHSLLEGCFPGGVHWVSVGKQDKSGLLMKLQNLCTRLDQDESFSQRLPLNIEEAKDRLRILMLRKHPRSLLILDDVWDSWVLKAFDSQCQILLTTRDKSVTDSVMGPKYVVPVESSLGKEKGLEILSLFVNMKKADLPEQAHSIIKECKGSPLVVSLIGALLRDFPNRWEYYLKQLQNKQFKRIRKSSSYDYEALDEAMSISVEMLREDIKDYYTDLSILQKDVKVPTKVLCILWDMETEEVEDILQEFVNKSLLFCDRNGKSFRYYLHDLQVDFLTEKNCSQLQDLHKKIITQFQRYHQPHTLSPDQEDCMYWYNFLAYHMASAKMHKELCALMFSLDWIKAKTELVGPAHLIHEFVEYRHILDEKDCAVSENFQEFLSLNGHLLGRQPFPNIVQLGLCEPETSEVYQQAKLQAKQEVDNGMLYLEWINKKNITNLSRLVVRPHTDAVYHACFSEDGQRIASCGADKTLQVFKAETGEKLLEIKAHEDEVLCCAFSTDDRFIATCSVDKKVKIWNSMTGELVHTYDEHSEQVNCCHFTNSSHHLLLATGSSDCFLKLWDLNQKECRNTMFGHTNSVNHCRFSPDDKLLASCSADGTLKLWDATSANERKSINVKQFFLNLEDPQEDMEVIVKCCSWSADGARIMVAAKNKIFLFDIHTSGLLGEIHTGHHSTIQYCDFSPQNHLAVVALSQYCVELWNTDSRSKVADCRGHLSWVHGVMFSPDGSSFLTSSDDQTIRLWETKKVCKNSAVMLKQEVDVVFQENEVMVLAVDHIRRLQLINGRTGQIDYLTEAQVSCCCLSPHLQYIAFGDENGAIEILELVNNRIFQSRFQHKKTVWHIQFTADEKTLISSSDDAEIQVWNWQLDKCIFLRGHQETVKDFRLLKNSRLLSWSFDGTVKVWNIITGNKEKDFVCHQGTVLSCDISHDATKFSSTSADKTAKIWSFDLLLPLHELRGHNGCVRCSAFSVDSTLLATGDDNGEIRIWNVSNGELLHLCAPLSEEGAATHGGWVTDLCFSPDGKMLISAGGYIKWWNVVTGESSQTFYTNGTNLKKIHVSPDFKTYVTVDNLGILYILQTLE

Genome polyprotein = Genome polyprotein (dengue virus type 2, UniProt P29990); assay: Dengue-2 NS5 methyltransferase inhibitors, primary screen, biochemical, confirmation dose response (AID 588689); type: functional
[14] = target: T6, Tyrosyl-DNA phosphodiesterase 2 (Homo sapiens, UniProt O95551); assay: human TDP2 enzyme inhibitors, dose response, biochemical, epi absorbance, IC50 (AID 743297)
T6 sequence (O95551 whole entry): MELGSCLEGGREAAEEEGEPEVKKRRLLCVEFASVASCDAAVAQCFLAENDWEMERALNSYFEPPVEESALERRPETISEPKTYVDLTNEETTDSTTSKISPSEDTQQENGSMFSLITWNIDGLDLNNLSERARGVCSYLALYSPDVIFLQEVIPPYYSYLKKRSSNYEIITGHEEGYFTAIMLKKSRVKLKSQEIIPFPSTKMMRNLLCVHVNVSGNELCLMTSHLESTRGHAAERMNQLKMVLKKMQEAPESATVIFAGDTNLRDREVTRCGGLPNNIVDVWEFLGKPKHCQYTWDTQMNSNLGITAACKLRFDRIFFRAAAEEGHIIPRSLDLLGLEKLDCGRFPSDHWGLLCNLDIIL

[15] = THP-1 cell cytotoxicity, dose response, cytotoxicity control for non-replicating M. tuberculosis project (AID 489025); type: functional
[16] = HepG2 cell cytotoxicity, dose response, cytotoxicity control for non-replicating M. tuberculosis project (AID 489018); type: functional; conditions: Mycobacterium tuberculosis
cells = type: functional
Trypsin = Trypsin (Sus scrofa, UniProt P00761); assay: porcine trypsin inhibitors, dose response, selectivity assay for Rce1 protease inhibitor project, biochemical, quenched peptide fluorescence, cherry-pick (AID 488789)
Sequence of Trypsin (P00761 whole entry): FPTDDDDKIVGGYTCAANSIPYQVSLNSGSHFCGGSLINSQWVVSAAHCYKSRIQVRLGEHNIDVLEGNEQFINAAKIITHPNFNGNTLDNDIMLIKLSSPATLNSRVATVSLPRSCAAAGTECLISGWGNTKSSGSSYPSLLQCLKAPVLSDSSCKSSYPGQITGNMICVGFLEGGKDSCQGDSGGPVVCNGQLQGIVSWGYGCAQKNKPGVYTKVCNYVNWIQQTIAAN

Sequence of Voltage-dependent T-type calcium channel subunit alpha-1H (O95180 whole entry): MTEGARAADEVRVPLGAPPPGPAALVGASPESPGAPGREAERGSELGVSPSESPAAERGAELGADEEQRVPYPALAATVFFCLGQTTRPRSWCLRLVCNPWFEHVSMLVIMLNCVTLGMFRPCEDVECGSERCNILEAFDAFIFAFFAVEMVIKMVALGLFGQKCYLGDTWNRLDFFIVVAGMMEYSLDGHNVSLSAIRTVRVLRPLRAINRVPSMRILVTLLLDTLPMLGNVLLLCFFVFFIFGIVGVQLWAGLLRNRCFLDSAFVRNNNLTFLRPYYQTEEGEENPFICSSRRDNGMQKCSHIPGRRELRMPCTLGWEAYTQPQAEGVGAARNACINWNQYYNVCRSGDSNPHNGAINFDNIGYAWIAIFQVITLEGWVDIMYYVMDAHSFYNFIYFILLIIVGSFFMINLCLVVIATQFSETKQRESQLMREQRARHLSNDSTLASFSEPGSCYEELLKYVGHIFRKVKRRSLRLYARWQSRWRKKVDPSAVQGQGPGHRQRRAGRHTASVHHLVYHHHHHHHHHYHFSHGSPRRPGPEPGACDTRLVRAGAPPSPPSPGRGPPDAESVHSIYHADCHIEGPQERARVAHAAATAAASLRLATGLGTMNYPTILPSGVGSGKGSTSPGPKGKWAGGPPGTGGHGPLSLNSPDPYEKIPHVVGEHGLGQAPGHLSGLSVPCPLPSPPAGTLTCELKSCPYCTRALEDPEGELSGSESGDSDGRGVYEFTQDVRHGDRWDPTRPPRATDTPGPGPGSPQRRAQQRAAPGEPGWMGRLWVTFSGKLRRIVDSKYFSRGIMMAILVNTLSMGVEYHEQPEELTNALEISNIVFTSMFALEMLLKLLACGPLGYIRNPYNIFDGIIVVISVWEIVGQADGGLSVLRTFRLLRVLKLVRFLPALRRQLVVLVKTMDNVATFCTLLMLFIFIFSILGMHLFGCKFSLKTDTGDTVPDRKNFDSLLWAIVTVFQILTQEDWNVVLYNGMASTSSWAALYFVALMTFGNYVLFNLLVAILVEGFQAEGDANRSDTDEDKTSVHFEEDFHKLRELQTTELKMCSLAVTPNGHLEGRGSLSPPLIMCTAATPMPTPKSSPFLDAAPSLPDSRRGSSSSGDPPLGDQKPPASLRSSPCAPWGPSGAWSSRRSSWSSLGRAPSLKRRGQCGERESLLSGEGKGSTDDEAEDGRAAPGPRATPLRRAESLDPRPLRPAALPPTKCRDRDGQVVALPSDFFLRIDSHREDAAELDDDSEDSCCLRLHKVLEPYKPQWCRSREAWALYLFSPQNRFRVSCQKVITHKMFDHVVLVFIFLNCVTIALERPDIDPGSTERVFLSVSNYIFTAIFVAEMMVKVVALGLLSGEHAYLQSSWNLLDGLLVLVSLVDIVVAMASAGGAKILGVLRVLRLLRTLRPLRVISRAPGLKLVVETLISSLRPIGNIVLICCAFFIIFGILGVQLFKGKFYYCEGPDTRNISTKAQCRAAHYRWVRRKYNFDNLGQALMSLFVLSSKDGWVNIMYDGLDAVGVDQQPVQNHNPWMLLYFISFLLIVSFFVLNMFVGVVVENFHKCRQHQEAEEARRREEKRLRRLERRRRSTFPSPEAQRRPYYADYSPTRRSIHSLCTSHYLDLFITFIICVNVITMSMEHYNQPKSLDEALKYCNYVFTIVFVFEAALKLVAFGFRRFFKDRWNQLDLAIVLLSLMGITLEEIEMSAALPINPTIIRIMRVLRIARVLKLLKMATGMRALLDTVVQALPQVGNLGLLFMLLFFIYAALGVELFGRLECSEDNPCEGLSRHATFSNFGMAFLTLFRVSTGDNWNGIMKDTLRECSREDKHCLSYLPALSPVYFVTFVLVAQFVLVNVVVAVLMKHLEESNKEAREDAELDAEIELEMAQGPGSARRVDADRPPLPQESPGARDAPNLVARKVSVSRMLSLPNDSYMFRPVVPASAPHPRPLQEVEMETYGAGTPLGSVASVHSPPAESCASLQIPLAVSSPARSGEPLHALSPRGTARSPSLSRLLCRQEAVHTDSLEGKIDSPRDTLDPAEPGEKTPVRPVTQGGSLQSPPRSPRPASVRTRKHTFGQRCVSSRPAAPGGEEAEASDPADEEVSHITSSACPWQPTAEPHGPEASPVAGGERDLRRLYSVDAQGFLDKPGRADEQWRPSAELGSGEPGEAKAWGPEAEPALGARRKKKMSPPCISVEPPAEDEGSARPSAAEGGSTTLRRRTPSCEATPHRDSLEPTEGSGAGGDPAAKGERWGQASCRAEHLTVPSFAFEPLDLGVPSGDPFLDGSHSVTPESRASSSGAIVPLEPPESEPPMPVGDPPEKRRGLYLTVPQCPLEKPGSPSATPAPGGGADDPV

For `O=C(Nc1ccc(S(=O)(=O)N2CCCCCC2)cc1)c1ccc(Br)o1`, the EC50 [1] was 7.13 µM (active).
For `CCN1CCN(c2nc3ccccc3nc2C(C#N)C(=O)OCc2ccccc2)CC1` (centres undefined), the IC50 [2] was 93.8 µM (active) and the IC50 [3] was 44.8 µM (active).
In the case of `CC1=CC(C)C2C(=O)N(CCC[N+](C)(C)C)C(=O)C2C1` (centres undefined), the IC50 [2] is reported as 97.8 µM (active) and the IC50 [3] is reported as 6.94 µM (active).
With `CCOC(=O)c1ccc(NC(=O)C2C3CCC(C3)C2C(=O)O)cc1` (centres undefined) the IC50 (Leucine aminopeptidase) was 20 µM (active) and the IC50 [4] was > 100 µM (active).
For `Cc1cccc(NC(=O)CNc2cc(C)ccc2C)c1`, the EC50 [1] was 15.2 µM (active).
In the case of `CC(C)(C)n1nnnc1C(c1ccc(C(F)(F)F)cc1)N(Cc1ccc(F)cc1)Cc1ccco1` (centres undefined), the CC50 [5] is reported as 10.3 µM (active), the EC50 [1] is reported as 2.84 µM (active) and the AC50 [6] is reported as 10.1 µM (active). The AC50 [7] was 40.3 µM (active) and the AC50 [8] was 18.8 µM (active).
For `N#CC1=C(N)Oc2[nH]nc(-c3ccc(F)cc3)c2C1c1ccncc1` (centres undefined), the IC50 (Leucine aminopeptidase) was 94.3 µM (active), the AC50 [9] was 7.34 µM (active) and the EC50 (Protein RecA) was 5.79 µM (active).
With `COc1cc(C(=O)Nc2ccc3c(c2)C(=O)c2ccccc2C3=O)cc(OC)c1OC` the IC50 [10] was 2.77 µM (active).
For `Cc1cc(/C=C2\C(=N)N3N=C(c4ccco4)SC3=NC2=O)c(C)n1Cc1ccccc1`, the IC50 (SUMO-activating enzyme [11]) was 8.55 µM (active) and the IC50 (SUMO-activating enzyme [12]) was 7.54 µM (active).
In the case of `COc1cc(C(c2c(C)[nH]n(-c3ccccc3)c2=O)c2c(C)[nH]n(-c3ccccc3)c2=O)cc(OC)c1OC`, the IC50 (SUMO-activating enzyme [11]) is reported as 6.66 µM (active), the IC50 (SUMO-activating enzyme [12]) is reported as 33.9 µM (active) and the IC50 [13] is reported as 24.4 µM (active). The IC50 (Genome polyprotein) was 38.3 µM (active) and the IC50 [14] was 19.9 µM (inactive).
For `CC/C(=N\n1nnnc1Nc1ccccc1)c1ccccc1`, the EC50 [1] was 5.34 µM (active).
With `COc1ccc(C(=O)Oc2cccc3cccnc23)cc1S(=O)(=O)N1CCOCC1` the CC50 [15] was 26.6 µM (active), the CC50 [16] was 18 µM (active) and the IC50 (cells) was 6.24 µM (active).
With `COc1c2ccoc2nc2c(OC)cccc12` [GAMMA-FAGARINE] the AC50 (Trypsin) was 9.78 µM (active).
